Values after ≈ are worked out from the molar mass of the structure shown. Values joined by “and” are separate entries in the source; they are usually repeats but may differ in a detail not shown here. Equal values may be shown once.
Key:
[1] = test system: Mycobacterium tuberculosis; test: Antitubercular activity against Mycobacterium tuberculosis H37Rv at 6.25 ug/mL by broth microdilution method; assay type: functional
[2] = test system: Mycobacterium tuberculosis; test: Antitubercular activity against Mycobacterium tuberculosis H37Rv by microplate alamar blue assay; assay type: functional
[3] = test system: Mycobacterium tuberculosis; test: Antitubercular activity against Mycobacterium tuberculosis isolate UC0801 by microplate alamar blue assay; assay type: functional
[4] = test system: Mycobacterium tuberculosis; test: Antitubercular activity against Mycobacterium tuberculosis isolate UC0802 by microplate alamar blue assay; assay type: functional
[5] = test system: Mycobacterium tuberculosis; test: Antitubercular activity against Mycobacterium tuberculosis isolate UC0803 by microplate alamar blue assay; assay type: functional
[6] = test system: Mycobacterium tuberculosis; test: Antitubercular activity against Mycobacterium tuberculosis isolate UC0804 by microplate alamar blue assay; assay type: functional
Vero [7] = test: Cytotoxicity against african green monkey Vero cells after 72 hrs by MTT assay; assay type: cell-based; details: Chlorocebus sabaeus
[8] = Selectivity index, IC50 for african green monkey Vero cells to MIC for Mycobacterium tuberculosis H37Rv; assay type: functional
[9] = test system: Mycobacterium tuberculosis; test: Antitubercular activity against Mycobacterium tuberculosis H37Rv assessed as CFU treated on day 7 measured after 14 days; assay type: functional, organism-based
Vero [10] = test: Cytotoxicity against african green monkey Vero cells at > 2.5 ug/mL after 72 hrs by MTT assay; assay type: cell-based; details: Chlorocebus sabaeus

Compound: COc1ccc(/C=N/Nc2cc(C)nc3cc4c(cc23)OCO4)cc1OC
- inhibition at 6.25 µg/mL [1]: 100%

Compound: NNC(=O)c1ccncc1 [ISONIAZID]
- MIC [2]: 0.36 µM and 0.05 µg/mL
- MIC [3]: 0.05 µg/mL (≈ 0.365 µM)
- MIC [4]: 0.25 µg/mL (≈ 1.82 µM)
- MIC [5]: 0.05 µg/mL (≈ 0.365 µM)
- MIC [6]: 0.05 µg/mL (≈ 0.365 µM)

Compound: COc1ccc2nccc(N/N=C/c3ccc4c(c3)OCO4)c2c1
- inhibition at 6.25 µg/mL [1]: 100%
- MIC [2]: 2.4 µM

Compound: COc1ccc2cc(/C=N/Nc3ccnc4cc(OC)ccc34)ccc2c1
- inhibition at 6.25 µg/mL [1]: 100%
- MIC [2]: 0.6 µM
- IC50 (Vero [7]): 0.211 µg/mL (≈ 0.59 µM)
- Selectivity Index [8]: 1.05

Compound: COc1ccc2cc(/C=N/Nc3cc(C)nc4cc5c(cc34)OCO5)ccc2c1
- inhibition at 6.25 µg/mL [1]: 100%

Compound: Cc1cc(N/N=C/c2ccc(F)cc2)c2cc3c(cc2n1)OCO3
- inhibition at 6.25 µg/mL [1]: 100%
- MIC [2]: 19.3 µM

Compound: COc1ccc2nc(C)cc(N/N=C/c3ccc(N(C)C)cc3)c2c1
- inhibition at 6.25 µg/mL [1]: 100%
- MIC [2]: 9.4 µM

Compound: COc1ccc2c(N/N=C/c3ccnc4ccccc34)ccnc2c1
- inhibition at 6.25 µg/mL [1]: 100%
- MIC [2]: 9.5 µM

Compound: COc1cccc2c(N/N=C/c3ccccc3)ccnc12
- inhibition at 6.25 µg/mL [1]: 99%
- MIC [2]: 11.3 µM

Compound: COc1cccc2c(N/N=C/c3cccc4ccccc34)cc(C)nc12
- inhibition at 6.25 µg/mL [1]: 99%
- MIC [2]: 9.3 µM

Compound: Cc1cc(N/N=C/c2ncc[nH]2)c2cc3c(cc2n1)OCO3
- inhibition at 6.25 µg/mL [1]: 100%
- MIC [2]: 5.3 µg/mL
- IC50 (Vero [7]): > 100 µg/mL
- Selectivity Index [8]: >66

Compound: Cc1cc(N/N=C/c2ccc(O)cc2)c2cc3c(cc2n1)OCO3
- inhibition at 6.25 µg/mL [1]: 100%

Compound: CCOc1ccc2c(N/N=C/c3ccncc3)cc(C)nc2c1
- inhibition at 6.25 µg/mL [1]: 78%

Compound: COc1ccc2c(N/N=C/c3ccccc3)ccnc2c1
- inhibition at 6.25 µg/mL [1]: 100%
- MIC [2]: 16.4 µM

Compound: COc1cccc(/C=N/Nc2cc(C)nc3cc4c(cc23)OCO4)c1
- inhibition at 6.25 µg/mL [1]: 100%
- MIC [2]: 9.3 µM

Compound: C(=N\Nc1ccnc2cc3c(cc12)OCO3)/C1CCCCC1
- inhibition at 6.25 µg/mL [1]: 74%

Compound: COc1ccc2c(N/N=C/c3ccc4ccccc4c3)ccnc2c1
- inhibition at 6.25 µg/mL [1]: 100%
- MIC [2]: 0.6 µM
- IC50 (Vero [7]): 0.454 µg/mL (≈ 1.39 µM)
- Selectivity Index [8]: 2.27

Compound: CCOc1ccc2c(N/N=C/c3ccc(OC)cc3)cc(C)nc2c1
- inhibition at 6.25 µg/mL [1]: 20%

Compound: COc1cccc2c(N/N=C/c3ccc4c(c3)OCO4)cc(C)nc12
- inhibition at 6.25 µg/mL [1]: 95%

Compound: COc1ccc(/C=N/Nc2cc(C)nc3ccc(OC)cc23)cc1
- inhibition at 6.25 µg/mL [1]: 100%
- MIC [2]: 4.8 µM

Compound: COc1ccc(/C=N/Nc2ccnc3cc(OC)ccc23)cc1
- inhibition at 6.25 µg/mL [1]: 100%
- MIC [2]: 9.8 µM

Compound: COc1ccc2nccc(N/N=C/C3CCCCC3)c2c1
- inhibition at 6.25 µg/mL [1]: 99%
- MIC [2]: 11.1 µM
- IC50 (Vero [7]): 5.03 µg/mL (≈ 17.8 µM)
- Selectivity Index [8]: 3.44

Compound: COc1ccc2c(N/N=C/c3ccc4c(c3)OCO4)ccnc2c1
- inhibition at 6.25 µg/mL [1]: 100%
- MIC [2]: 9.7 µM

Compound: Cc1cc(N/N=C/c2ccc3ccccc3c2)c2cc3c(cc2n1)OCO3
- inhibition at 6.25 µg/mL [1]: 100%

Compound: Cc1cc(N/N=C/c2ccnc3ccccc23)c2cc3c(cc2n1)OCO3
- inhibition at 6.25 µg/mL [1]: 100%

Compound: COc1ccc2c(/C=N/Nc3ccnc4cc(OC)ccc34)ccnc2c1
- inhibition at 6.25 µg/mL [1]: 100%
- MIC [2]: 2.2 µM

Compound: COc1ccc(/C=N/Nc2ccnc3cc4c(cc23)OCO4)cc1
- inhibition at 6.25 µg/mL [1]: 100%
- MIC [2]: 4.8 µM

Compound: COc1ccc2nccc(N/N=C/c3ccc(N(C)C)cc3)c2c1
- inhibition at 6.25 µg/mL [1]: 100%
- MIC [2]: 19.5 µM

Compound: Cc1cc(N/N=C/c2ccccc2)c2cc3c(cc2n1)OCO3
- inhibition at 6.25 µg/mL [1]: 100%
- MIC [2]: 2.6 µM and 0.5 µg/mL
- Activity [9]: Dose-dependent effect
- MIC [3]: 0.12 µg/mL (≈ 0.393 µM)
- MIC [4]: 1 µg/mL (≈ 3.28 µM)
- MIC [5]: 0.25 µg/mL (≈ 0.819 µM)
- MIC [6]: 0.12 µg/mL (≈ 0.393 µM)
- Activity (Vero [10]): Toxic

Compound: CCOc1ccc2c(N/N=C/c3ccc(OC)cc3)ccnc2c1
- inhibition at 6.25 µg/mL [1]: 100%
- MIC [2]: 9.7 µM

Compound: COc1ccc(/C=N/Nc2ccnc3ccc(OC)cc23)cc1
- inhibition at 6.25 µg/mL [1]: 100%
- MIC [2]: 10.2 µM

Compound: CCN(CC)c1ccc(/C=N/Nc2cc(C)nc3cc4c(cc23)OCO4)cc1
- inhibition at 6.25 µg/mL [1]: 100%
- MIC [2]: 8.3 µM

Compound: Cc1cc(N/N=C/c2cccc(O)c2)c2cc3c(cc2n1)OCO3
- inhibition at 6.25 µg/mL [1]: 100%

Compound: COc1ccc(/C=N/Nc2cc(C)nc3cc4c(cc23)OCO4)c2ccccc12
- inhibition at 6.25 µg/mL [1]: 100%
- MIC [2]: 4 µM
- IC50 (Vero [7]): 0.24 µg/mL (≈ 0.623 µM)
- Selectivity Index [8]: 0.15

Compound: CCOc1ccc2c(N/N=C/c3ccc4c(c3)OCO4)ccnc2c1
- inhibition at 6.25 µg/mL [1]: 48%

Compound: Cc1cc(N/N=C/C2CCCCC2)c2cc3c(cc2n1)OCO3
- inhibition at 6.25 µg/mL [1]: 9%

Compound: COc1cccc2c(N/N=C/c3ccc4ccccc4n3)ccnc12
- inhibition at 6.25 µg/mL [1]: 99%
- MIC [2]: 4.8 µM
- IC50 (Vero [7]): 1.68 µg/mL (≈ 5.12 µM)
- Selectivity Index [8]: 1.08

Compound: CCOc1ccc2c(N/N=C/c3ccncc3)ccnc2c1
- inhibition at 6.25 µg/mL [1]: 26%

Compound: Cc1cc(N/N=C/c2ccc3c(c2)OCO3)c2cc3c(cc2n1)OCO3
- inhibition at 6.25 µg/mL [1]: 100%
- MIC [2]: 4.5 µM
- IC50 (Vero [7]): 0.22 µg/mL (≈ 0.63 µM)
- Selectivity Index [8]: 0.14

Compound: Cc1cc(N/N=C/c2ccc[nH]2)c2cc3c(cc2n1)OCO3
- inhibition at 6.25 µg/mL [1]: 100%
- MIC [2]: 10.6 µM

Compound: COc1cccc2c(N/N=C/c3cccc4ccccc34)ccnc12
- inhibition at 6.25 µg/mL [1]: 100%

Compound: COc1ccc2c(N/N=C/c3cccc(O)c3)ccnc2c1
- inhibition at 6.25 µg/mL [1]: 100%
- MIC [2]: 2.7 µM
- IC50 (Vero [7]): 1.09 µg/mL (≈ 3.72 µM)
- Selectivity Index [8]: 1.59

Compound: Cc1cc(N/N=C/c2ccccn2)c2cc3c(cc2n1)OCO3
- inhibition at 6.25 µg/mL [1]: 74%

Compound: COc1cccc2c(N/N=C/c3ccc4c(c3)OCO4)ccnc12
- inhibition at 6.25 µg/mL [1]: 31%

Compound: COc1ccc2c(N/N=C/c3ccc4ccccc4n3)ccnc2c1
- inhibition at 6.25 µg/mL [1]: 99%
- MIC [2]: 9.5 µM

Compound: COc1ccc2nc(C)cc(N/N=C/c3ccc4c(c3)OCO4)c2c1
- inhibition at 6.25 µg/mL [1]: 100%
- MIC [2]: 4.8 µM

Compound: COc1cccc2c(N/N=C/c3ccc4ccccc4n3)cc(C)nc12
- inhibition at 6.25 µg/mL [1]: 100%
- MIC [2]: 4.7 µM
- IC50 (Vero [7]): 3.11 µg/mL (≈ 9.08 µM)
- Selectivity Index [8]: 1.99

Compound: COc1ccc(/C=N/Nc2cc(C)nc3cc4c(cc23)OCO4)cc1
- inhibition at 6.25 µg/mL [1]: 100%
- MIC [2]: 9.3 µM

Compound: COc1ccc2c(N/N=C/c3ccc[nH]3)ccnc2c1
- inhibition at 6.25 µg/mL [1]: 99%
- MIC [2]: 11.8 µM

Compound: COc1ccc(/C=N/Nc2cc(C)nc3cc(OC)ccc23)cc1
- inhibition at 6.25 µg/mL [1]: 99%
- MIC [2]: 19.5 µM

Compound: Cc1cc(N/N=C/c2ccncc2)c2cc3c(cc2n1)OCO3
- inhibition at 6.25 µg/mL [1]: 87%

Compound: CCOc1ccc2c(N/N=C/c3ccc4c(c3)OCO4)cc(C)nc2c1
- inhibition at 6.25 µg/mL [1]: 98%
- MIC [2]: 9 µM

Compound: COc1cccc2c(N/N=C/c3ccnc4ccccc34)cc(C)nc12
- inhibition at 6.25 µg/mL [1]: 98%
- MIC [2]: 9.1 µM

Compound: COc1ccc2c(N/N=C/c3ccc(N(C)C)cc3)ccnc2c1
- inhibition at 6.25 µg/mL [1]: 100%
- MIC [2]: 4.9 µM
- IC50 (Vero [7]): 0.26 µg/mL (≈ 0.811 µM)
- Selectivity Index [8]: 0.17

Compound: COc1ccc2c(N/N=C/c3ccc(O)cc3)ccnc2c1
- inhibition at 6.25 µg/mL [1]: 100%
- MIC [2]: 5.3 µM
- IC50 (Vero [7]): 3.66 µg/mL (≈ 12.5 µM)
- Selectivity Index [8]: 2.53

Compound: COc1cccc2c(N/N=C/c3ccc(N(C)C)cc3)ccnc12
- inhibition at 6.25 µg/mL [1]: 100%
- MIC [2]: 19.5 µM

Compound: CO[C@H]1/C=C/O[C@@]2(C)Oc3c(C)c(O)c4c(O)c(c(/C=N/N5CCN(C)CC5)c(O)c4c3C2=O)NC(=O)/C(C)=C\C=C\[C@H](C)[C@H](O)[C@@H](C)[C@@H](O)[C@@H](C)[C@H](OC(C)=O)[C@@H]1C [RIFAMPIN]
- MIC [2]: 0.037 µM

Compound: COc1ccc2c(N/N=C/c3ccc4ccccc4n3)cc(C)nc2c1
- inhibition at 6.25 µg/mL [1]: 100%
- MIC [2]: 4.6 µM
- IC50 (Vero [7]): 0.12 µg/mL (≈ 0.35 µM)
- Selectivity Index [8]: 0.08

Compound: COc1ccc2c(N/N=C/c3ccnc4ccccc34)cc(C)nc2c1
- inhibition at 6.25 µg/mL [1]: 100%
- MIC [2]: 4.6 µM

Compound: COc1ccc2ccccc2c1/C=N/Nc1cc(C)nc2cc3c(cc12)OCO3
- inhibition at 6.25 µg/mL [1]: 100%

From ChEMBL document CHEMBL1153497, “Development of antitubercular compounds based on a 4-quinolylhydrazone scaffold. Further structure-activity relationship studies” (Bioorg Med Chem, 2009)
